{"source": "patent US7960134B1", "about": "“Kinase inhibition models and their uses” (ArQule, Inc., priority 2007, dated 2011)", "origin": "cited, not measured here", "key": {"c-Abl": {"biological_target": "c-Abl (Homo sapiens, UniProt P00519)", "sequence (P00519 whole entry)": "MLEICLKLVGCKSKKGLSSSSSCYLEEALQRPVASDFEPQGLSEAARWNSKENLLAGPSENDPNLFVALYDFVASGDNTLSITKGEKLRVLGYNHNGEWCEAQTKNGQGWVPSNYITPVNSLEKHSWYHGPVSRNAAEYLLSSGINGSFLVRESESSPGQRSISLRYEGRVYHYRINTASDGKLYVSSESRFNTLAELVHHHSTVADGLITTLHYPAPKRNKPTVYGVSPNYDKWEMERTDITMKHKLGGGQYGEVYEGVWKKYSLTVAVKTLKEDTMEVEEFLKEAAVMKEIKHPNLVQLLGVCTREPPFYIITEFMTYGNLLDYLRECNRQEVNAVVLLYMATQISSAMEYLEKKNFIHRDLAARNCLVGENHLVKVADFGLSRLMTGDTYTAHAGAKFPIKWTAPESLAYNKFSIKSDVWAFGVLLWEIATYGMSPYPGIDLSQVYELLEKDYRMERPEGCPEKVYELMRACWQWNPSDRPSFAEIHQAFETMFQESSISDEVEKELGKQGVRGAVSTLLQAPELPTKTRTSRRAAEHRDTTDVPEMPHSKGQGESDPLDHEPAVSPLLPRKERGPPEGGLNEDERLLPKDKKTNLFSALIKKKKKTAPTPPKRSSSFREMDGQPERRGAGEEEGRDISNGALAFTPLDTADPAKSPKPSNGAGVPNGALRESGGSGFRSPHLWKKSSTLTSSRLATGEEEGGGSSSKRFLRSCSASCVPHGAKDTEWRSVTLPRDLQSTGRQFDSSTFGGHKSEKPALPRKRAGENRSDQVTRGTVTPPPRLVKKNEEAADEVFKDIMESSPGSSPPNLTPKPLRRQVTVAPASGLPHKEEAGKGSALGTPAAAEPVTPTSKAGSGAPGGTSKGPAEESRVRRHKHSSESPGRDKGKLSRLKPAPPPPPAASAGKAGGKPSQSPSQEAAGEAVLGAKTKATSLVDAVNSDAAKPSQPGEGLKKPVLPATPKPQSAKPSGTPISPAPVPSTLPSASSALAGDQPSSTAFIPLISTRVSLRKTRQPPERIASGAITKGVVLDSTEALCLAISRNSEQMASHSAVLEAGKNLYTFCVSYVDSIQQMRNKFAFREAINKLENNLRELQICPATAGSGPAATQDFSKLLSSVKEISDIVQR", "settings": "observation cited from WO 2006/086484 A1"}, "c-Met": {"biological_target": "c-Met (Homo sapiens, UniProt P08581)", "sequence (P08581 25-1390)": "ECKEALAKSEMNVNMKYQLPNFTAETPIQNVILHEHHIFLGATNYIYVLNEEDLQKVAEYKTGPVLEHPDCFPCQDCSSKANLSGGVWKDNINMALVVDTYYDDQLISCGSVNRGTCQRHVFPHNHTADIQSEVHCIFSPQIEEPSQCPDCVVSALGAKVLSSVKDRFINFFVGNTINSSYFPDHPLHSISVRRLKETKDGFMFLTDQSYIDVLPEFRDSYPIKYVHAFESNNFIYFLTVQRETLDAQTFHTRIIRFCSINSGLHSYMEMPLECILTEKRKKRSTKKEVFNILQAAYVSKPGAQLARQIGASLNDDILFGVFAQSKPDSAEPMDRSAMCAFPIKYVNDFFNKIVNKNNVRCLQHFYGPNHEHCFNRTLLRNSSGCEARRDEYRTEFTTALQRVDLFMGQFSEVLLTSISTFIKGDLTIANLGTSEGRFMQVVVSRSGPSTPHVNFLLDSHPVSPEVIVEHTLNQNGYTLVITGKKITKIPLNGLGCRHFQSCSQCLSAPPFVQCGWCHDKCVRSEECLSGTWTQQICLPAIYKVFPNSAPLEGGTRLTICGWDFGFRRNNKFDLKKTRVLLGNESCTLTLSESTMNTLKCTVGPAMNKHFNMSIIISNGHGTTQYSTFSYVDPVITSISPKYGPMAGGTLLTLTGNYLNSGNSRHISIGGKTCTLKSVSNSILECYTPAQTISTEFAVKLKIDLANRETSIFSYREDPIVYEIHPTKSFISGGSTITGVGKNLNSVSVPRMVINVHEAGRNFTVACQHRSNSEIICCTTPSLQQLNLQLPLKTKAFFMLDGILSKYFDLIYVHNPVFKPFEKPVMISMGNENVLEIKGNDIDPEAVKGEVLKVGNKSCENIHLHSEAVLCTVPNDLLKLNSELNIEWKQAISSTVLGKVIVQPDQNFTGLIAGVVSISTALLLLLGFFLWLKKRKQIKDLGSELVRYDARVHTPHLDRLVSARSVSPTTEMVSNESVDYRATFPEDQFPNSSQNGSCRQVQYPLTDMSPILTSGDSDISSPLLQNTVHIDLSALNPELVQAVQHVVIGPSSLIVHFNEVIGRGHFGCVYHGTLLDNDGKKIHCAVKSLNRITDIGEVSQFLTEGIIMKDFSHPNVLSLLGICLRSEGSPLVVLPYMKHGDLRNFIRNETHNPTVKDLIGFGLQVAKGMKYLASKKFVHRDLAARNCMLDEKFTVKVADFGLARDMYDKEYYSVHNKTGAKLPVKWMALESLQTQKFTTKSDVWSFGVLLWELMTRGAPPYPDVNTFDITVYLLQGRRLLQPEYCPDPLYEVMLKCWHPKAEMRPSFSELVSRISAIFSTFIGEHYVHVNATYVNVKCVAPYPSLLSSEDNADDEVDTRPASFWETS", "settings": "observation cited from WO 2006/086484 A1"}}}
{"smiles": "O=C1NC(=O)[C@@H](c2cn3c4c(cccc24)CCC3)[C@@H]1c1c[nH]c2ccccc12", "note": "(single isomer, unassigned) [the selective c-Met inhibitor, (−)-trans-3-(5,6-dihydro-4H-pyrrolo[3,2,1-ij]quinolin-1-yl)-4(1H-indol-3-yl)pyrrolidine-2,5-dione]", "values": [{"measurement": "inhibition of the activity of c-Abl", "setting": "c-Abl", "result": "does not inhibit the activity of c-Abl effectively"}, {"measurement": "inhibition of the activity of c-Met", "setting": "c-Met", "result": "inhibits the activity of c-Met effectively"}]}
